Test results from patent publication US12617756B2 (ABIVAX, priority 2019, dated 2026).

test system: RSV A2; assay: Screening for RSV inhibition using Viral ToxGlo assay (cytopathic effect inhibition in HEp-2 cells); type: cell-based, Respiratory Syncytial Virus (RSV); conditions: human respiratory syncytial virus; RSV A2 in HEp-2 cells, MOI 0.5, 72h p.i., cytopathic effect inhibition relative to virus control, Viral ToxGlo luminescence
Procedure: Protocol for Screening Antiviral Compounds for RSV Inhibition and Cytotoxicity Using Viral ToxGlo Assay
HEp-2 cells were maintained in Eagle's minimum essential medium (EMEM) with Earle's BSS adjusted to contain 2 mM L-glutamine, 10% fetal bovine serum, 100 U/ml penicillin and 100 µg/ml streptomycin. For the purposes of the screening assay they were grown to 90% confluency, trypsinized and recovered. The trypsin was neutralised with cell culture media and cells were centrifuged at 150×g for 5 minutes before discarding the supernatant and resuspending cell pellet in assay media (EMEM with Earle's BSS adjusted to contain 2 mM L-glutamine, 2% fetal bovine serum and 100 U/ml penicillin and 100 µg/ml streptomycin). The cells were seeded into white clear-bottomed cell culture plates at a density of 1.5×10^4 cells/well in 50 μl and 4×10^3 cells/well in 25 μl for 96 well plates and 384 well plates respectively. For the media/background control column assay media only was added. Cell plates were placed in a humid chamber and incubated overnight at 37° C./5% CO2. After overnight incubation cells were checked for confluency and healthy appearance.
Test articles were made up at 10× test concentration in a maximum DMSO concentration of 10% (final assay concentration maximal 1% DMSO) and added to the cell plates in volumes of […] for 96 well plates and 5 μl for 384 well plates. For cell control and virus control wells the test article solvent only was added. Virus or assay media for cytotoxicity test wells and media/cell control wells was added immediately after test articles at an MOI of […] for 96 and 384 well plates respectively. Virus suspension was prepared by thawing RSV A2 frozen stocks and diluting to the required concentration of plaque forming units in assay media on ice.
Cell plates were further incubated inside a humid chamber for 72h p.i at 37° C./5% CO2. After the incubation period cells were observed under the microscope to check for characteristic cytopathic effect in virus control wells and healthy cells in the cell control wells. After plates were adjusted to room temperature 20/40 μl Viral ToxGlo (Promega) was added to each well of the 384/96 well cell plates. Plates were incubated at room temperature, protected from light on a plate rocker for 20 minutes before measuring the luminescence on a spectrophotometer (Biotek Synergy HTX).

SMILES	EC50
CC(C)NC(=O)c1cccc(Nc2ccc(C(=O)N=C3NCCN3)cc2C2CC2)c1-c1ccoc1 [Compound 92, 3-[(2-cyclopropyl-4-{[(2Z)-imidazolidin-2-ylidene]carbamoyl}phenyl)amino]-2-(furan-3-yl)-N-(propan-2-yl)benzamide]	277 nM
O=C(N=C1NCCN1)c1ccc(Nc2cccc(C(=O)NC3CCS(=O)(=O)CC3)c2Cl)c(C2CC2)c1 [Compound 94, 4-({2-chloro-3-[(1,1-dioxo-1λ^6-thian-4-yl)carbamoyl]phenyl}amino)-3-cyclopropyl-N-[(2E)-imidazolidin-2-ylidene]benzamide]	240 nM
O=C(N=C1NCCN1)c1ccc(Nc2cccc(C(=O)NC3CCOC3)c2)c(C2CCCC2)c1 (stereo not shown) [Compound 95, 3-cyclopentyl-N-[(2Z)-imidazolidin-2-ylidene]-4-({3-[(oxolan-3-yl)carbamoyl]phenyl}amino)benzamide]	95.9 nM
O=C(N=C1NCCN1)c1ccc(Nc2cccc(C(=O)NC3CCOCC3)c2)c(C2CCCC2)c1 [Compound 96, 3-cyclopentyl-N-[(2Z)-imidazolidin-2-ylidene]-4-({3-[(oxan-4-yl)carbamoyl]phenyl}amino)benzamide]	839 nM
O=C(N=C1NCCN1)c1ccc(Nc2cccc(C(=O)N3CCOCC3)c2Cl)c(C2CCCO2)c1 (stereo not shown) [Compound 97, 4-{[2-chloro-3-(morpholine-4-carbonyl)phenyl]amino}-N-[(2E)-imidazolidin-2-ylidene]-3-(oxolan-2-yl)benzamide]	51 nM
CC(C)NC(=O)c1cccc(Nc2ccc(C(=O)N=C3NCCN3)cc2C2CC2)c1F [Compound 98, 3-cyclopropyl-4-({2-fluoro-3-[(propan-2-yl)carbamoyl]phenyl}amino)-N-[(2Z)-imidazolidin-2-ylidene]benzamide]	228 nM
CC1(NC(=O)c2nccc(Nc3c(F)cc(C(=O)N=C4NCCN4)cc3C3CC3)c2F)CC1 [Compound 99, 4-[(2-cyclopropyl-6-fluoro-4-{[(2Z)-imidazolidin-2-ylidene]carbamoyl}phenyl)amino]-3-fluoro-N-(1-methylcyclopropyl)pyridine-2-carboxamide]	35.3 nM
CC(C)CCC(=O)Nc1ccccc1Oc1ccc(C(=O)N=C2NCCN2)cc1C1CC1 [Compound 100, 3-cyclopropyl-N-[(2E)-imidazolidin-2-ylidene]-4-[2-(4-methylpentanamido)phenoxy]benzamide]	458 nM
CC1(NC(=O)c2cccc(Nc3ccc(C(=O)N=C4NCCN4)cc3S(C)(=O)=O)c2Cl)CC1 [Compound 102, 2-chloro-3-[(4-{[(2Z)-imidazolidin-2-ylidene]carbamoyl}-2-methanesulfonylphenyl)amino]-N-(1-methylcyclopropyl)benzamide]	819 nM
O=C(N=C1NCCN1)c1ccc(Nc2cccc(C(=O)N3CCS(=O)(=O)CC3)c2Cl)c(C2CC2)c1 [Compound 103, 4-{[2-chloro-3-(1,1-dioxo-1)^6-thiomorpholine-4-carbonyl)phenyl]amino}-3-cyclopropyl-N-[(2E)-imidazolidin-2-ylidene]benzamide]	19.4 nM
CC(C)C1COCCN1C(=O)c1cccc(Nc2ccc(C(=O)N=C3NCCN3)cc2C2CC2)c1Cl (stereo not shown) [Compound 104, 4-({2-chloro-3-[3-(propan-2-yl)morpholine-4-carbonyl]phenyl}amino)-3-cyclopropyl-N-[(2Z)-imidazolidin-2-ylidene]benzamide]	12.4 nM
CC(C)C1CN(C(=O)c2cccc(Nc3ccc(C(=O)N=C4NCCN4)cc3C3CC3)c2Cl)CCO1 (stereo not shown) [Compound 105, 4-({2-chloro-3-[2-(propan-2-yl)morpholine-4-carbonyl]phenyl}amino)-3-cyclopropyl-N-[(2Z)-imidazolidin-2-ylidene]benzamide]	3.2 nM
Cc1cc(C(=O)N=C2NCCN2)cc(C2CC2)c1Nc1cccc(C(=O)NC(C)C)c1 [Compound 106, 3-cyclopropyl-N-[(2Z)-imidazolidin-2-ylidene]-5-methyl-4-({3-[(propan-2-yl)carbamoyl]phenyl}amino)benzamide]	5.7 nM
